According to patent US8476197B2, “Aminopropenoates as fungicides” (priority 2009, dated 2013):
Marks after values point to notes of the source that are not given here.

details: pH 2.3

| SMILES | Log P |
| --- | --- |
| COC(=O)C(C#N)=C(NCC1OCCO1)c1cccnc1Cl [Compound 14] | 1.79 |
| CCOC(=O)C(C#N)=C(NC1CC2CCC1C2)c1cccnc1Cl (centres unmarked) [Compound 1080] | 3.59 |
| CCOC(=O)C(C#N)=C(NC(C)C(C)C)c1ccc(Cl)nc1Cl (centres unmarked) [Compound 986] | 3.85^[c]; 3.85^[b] |

same assay, conditions: pH 2.7

| Log P | SMILES |
| --- | --- |
| 4.86^[a] | CCOC(=O)C(C#N)=C(NC(C)C1CCCCC1)c1sc(C)nc1C(F)(F)F (centres unmarked) [Compound 876] |
| 2.89^[a] | COC(=O)C(C#N)=C(NC(C)c1cccc(OC)c1)c1cccnc1Cl (centres unmarked) [Compound 377] |
| 2.94^[a] | CCOC(=O)C(C#N)=C(NC(C)C(C)OC)c1scnc1Cl (racemic) [Compound 1480] |
| 2.57^[a] | CCOC(=O)C(C#N)=C(NC(C)c1ccccn1)c1cn(C)nc1C(C)(F)F (centres unmarked) [Compound 315] |
| 1.38^[a] | COC(=O)C(C#N)=C(NC(CN1CCOCC1)C1CC1)c1cccnc1Cl (centres unmarked) [Compound 121] |
| 4.73^[a] | CCOC(=O)C(C#N)=C(Nc1ccc(C(C)C)cc1)c1sccc1Br [Compound 490] |
| 4.06^[a] | CC#CC1(NC(=C(C#N)C(=O)OCC)c2cccnc2Cl)CCCCC1 [Compound 1430] |
| 5.32^[a] | CCOC(=O)C(C#N)=C(NC(C)CCCC(C)C)c1ccsc1Br (centres unmarked) [Compound 930] |
| 4.35^[a] | CCOC(=O)C(C#N)=C(NC(C)c1ccc(Cl)cc1)c1ccsc1Br (centres unmarked) [Compound 411] |
| 4.02^[a] | COC(=O)C(C#N)=C(NC(C)(C)C(C)(C)C)c1sc(C)nc1C(F)(F)F [Compound 754] |
| 3.37^[a] | COC(=O)C(C#N)=C(NC1CCCC(C)C1)c1cccnc1Cl (centres unmarked) [Compound 1074] |
| 5.14^[a] | CCOC(=O)C(C#N)=C(NC(C)CCCC(C)C)c1sc(C)nc1C(F)(F)F (centres unmarked) [Compound 929] |
| 3.71^[a] | CCOC(=O)C(C#N)=C(NC(C)COc1ccc(C)cc1)c1cn(C)nc1C(F)F (centres unmarked) [Compound 735] |
| 3.23^[a] | COC(=O)C(C#N)=C(NC(C)Cc1ccccc1C)c1cccnc1Cl (centres unmarked) [Compound 423] |
| 3.67^[a] | CCOC(=O)C(C#N)=C(NC1CCC1)c1ncc(Cl)cc1Cl [Compound 795] |
| 2.26^[a] | CCOC(=O)C(C#N)=C(NC(C)c1nccs1)c1cn(C)nc1OC (racemic) [Compound 229] |
| 3.67^[a] | CCOC(=O)C(C#N)=C(NCc1nc2ccccc2s1)c1sccc1C(F)(F)F [Compound 176] |
| 2.98^[a] | CCOC(=O)C(C#N)=C(NC(C)C(C)OC)c1cn(C)nc1C(Cl)Cl (centres unmarked) [Compound 1576] |

| Log P | SMILES |
| --- | --- |
| 4.31^[a] | C=CC(COCc1ccccc1)NC(=C(C#N)C(=O)OCC)c1sccc1Br (centres unmarked) [Compound 689] |
| 4.54^[a] | CCOC(=O)C(C#N)=C(NC(C)CC(C)C)c1sccc1C(F)(F)F (racemic) [Compound 781] |
| 3.71^[a] | CC#CC1(NC(=C(C#N)C(=O)OCC)c2cn(C)nc2C(F)F)CCCCC1 [Compound 1336] |
| 4.14^[a] | CCOC(=O)C(C#N)=C(NC(C(=O)OC)C(C)C)c1cc(Cl)sc1Cl (centres unmarked) [Compound 712] |
| 2.98^[a] | CCOC(=O)C(C#N)=C(NC(C)(C)C#N)c1nc(Cl)ccc1Cl [Compound 1011] |
| 3.89^[a] | CCOC(=O)C(C#N)=C(Nc1ccccc1SC)c1ccnc(Cl)c1Cl [Compound 1388] |
| 1.95^[a] | CCOC(=O)C(C#N)=C(NC(C)C(=O)NC)c1cn(C)nc1C(F)(F)F (centres unmarked) [Compound 636] |
| 2.67^[a] | CCOC(=O)C(C#N)=C(NC(C)C(C)OC)c1cnn(C)c1Cl (mixture of isomers) [Compound 1543] |
| 3^[a] | CCOC(=O)C(C#N)=C(NC1CCC1)c1scnc1Cl [Compound 1465] |
| 3.04^[a] | COC(=O)C(C#N)=C(NC1CCC(C(F)(F)F)CC1)c1cccnc1Cl (centres unmarked) [Compound 1075] |
| 3.87^[a] | CCOC(=O)C(C#N)=C(NCc1ccccc1SC)c1sc(C)nc1C(F)(F)F [Compound 464] |
| 3.31^[a] | CCCC(COC)NC(=C(C#N)C(=O)OCC)c1cccnc1Cl (centres unmarked) [Compound 1375] |
| 3.58^[a] | CCOC(=O)C(C#N)=C(NC1CCC1)c1nc(Cl)ccc1Cl [Compound 794] |
| 4.06^[a] | CCOC(=O)C(C#N)=C(NC(C)c1ccc(F)cc1)c1sccc1Br (mixture of isomers) [Compound 446] |
| 3.51^[a] | CCOC(=O)C(C#N)=C(NC(C)c1ccc(C)cc1)c1cn(C)nc1C(F)F (mixture of isomers) [Compound 455] |
| 4.31^[a] | CCOC(=O)C(C#N)=C(Nc1ccccc1SC)c1nsc(Cl)c1Cl [Compound 358] |
| 3.28^[a] | COC(=O)C(C#N)=C(NC(C)c1cccc(C(F)(F)F)c1)c1cccnc1Cl (centres unmarked) [Compound 401] |

| SMILES | Log P |
| --- | --- |
| COC(=O)C(C#N)=C(NC(C)C(C)C)c1cn(C)nc1C(F)F (centres unmarked) [Compound 938] | 2.8^[a] |
| CCOC(=O)C(C#N)=C(NC(C)c1ccccc1C)c1cn(C)nc1C(F)F (centres unmarked) [Compound 1365] | 3.46^[a] |
| CCOC(=O)C(C#N)=C(NC(C)Cc1c[nH]c2ccccc12)c1cn(C)nc1C(F)(F)F (centres unmarked) [Compound 65] | 3.73^[a] |
| COC(=O)C(C#N)=C(NC(C)Cc1ccccc1)c1cccnc1Cl (centres unmarked) [Compound 426] | 2.98^[a] |
| CCOC(=O)C(C#N)=C(NC(C)c1ccccn1)c1cn(C)cc1C(F)(F)F (racemic) [Compound 270] | 2.92^[a] |
| C#CC(C)NC(=C(C#N)C(=O)OCC)c1sc(C)nc1C(F)(F)F (centres unmarked) [Compound 1050] | 3.06^[a] |
| CCOC(=O)C(C#N)=C(NC(C)C(=O)NC)c1ccncc1Cl (centres unmarked) [Compound 723] | 1.78^[a] |
| CCOC(=O)C(C#N)=C(NC(C#N)c1ccccc1Br)c1cn(C)nc1C(F)F (centres unmarked) [Compound 1218] | 3.13^[a] |
| CCOC(=O)C(C#N)=C(NCc1ccccc1SC)c1cn(C)nc1C(F)F [Compound 476] | 3.17^[a] |
| CC(C)C(C)NC(=C(C#N)C(=O)NC1CC1)c1cn(C)nc1C(F)F (centres unmarked) [Compound 1006] | 2.66^[a] |
| CCOC(=O)C(C#N)=C(NC(C)C(C)C)c1conc1C (centres unmarked) [Compound 940] | 3.15^[a] |
| COC(=O)C(C#N)=C(NC(C)CF)c1cccnc1Cl (centres unmarked) [Compound 746] | 2.05^[a] |
| CCOC(=O)C(C#N)=C(NC1C2CCCCC21)c1cccnc1Cl (centres unmarked) [Compound 1083] | 3.73^[a] |
| CCOC(=O)C(C#N)=C(NC(c1ccccn1)C(F)(F)F)c1cccnc1Cl (racemic) [Compound 1549] | 3.17^[a] |
| COC(=O)C(C#N)=C(Nc1ccccc1SC)c1cn(C)nc1C(F)F [Compound 357] | 2.8^[a] |
| CCOC(=O)C(C#N)=C(NC(C)C1CC1)c1cccnc1Cl (centres unmarked) [Compound 909] | 3.1^[a] |
| CCOC(=O)C(C#N)=C(NC1CCC1)c1cccnc1C(F)F [Compound 799] | 2.76^[a] |
| CCOC(=O)C(C#N)=C(NC(C)c1nccs1)c1cnc(Cl)cc1Cl (racemic) [Compound 223] | 3^[a] |
| CCOC(=O)C(C#N)=C(NC(C)c1nc(C)c(C)s1)c1cn(C)nc1C(F)F (racemic) [Compound 33] | 2.96^[a] |
| CCNC(=O)C(C#N)=C(NC(C)c1nccs1)c1cccnc1Cl (centres unmarked) [Compound 328] | 2.07 |

same assay, conditions: pH 7.5

| SMILES | Log P |
| --- | --- |
| COC(=O)C(C#N)=C(NCC1OCCO1)c1cccnc1Cl [Compound 14] | 1.77 |
| CCOC(=O)C(C#N)=C(NC1CC2CCC1C2)c1cccnc1Cl (centres unmarked) [Compound 1080] | 3.57 |
| CCOC(=O)C(C#N)=C(NC(C)C(C)C)c1ccc(Cl)nc1Cl (centres unmarked) [Compound 986] | 3.85^[c]; 3.85^[b] |
| CCNC(=O)C(C#N)=C(NC(C)c1nccs1)c1cccnc1Cl (centres unmarked) [Compound 328] | 2.05 |
